Assays:
[1] = tested on: irrelevant G-protein coupled receptor (GPCR); assay: G.Validation fluorescence assay on irrelevant GPCR control; type: biochemical; conditions: SDF1α 15 μM, AMD3100 100 μM, Example 60 150 μM; SB3L1
[2] = molecular target: T1, Recombinant CXCR4 receptor (Homo sapiens, UniProt P61073); assay: G.Validation fluorescence assay of CXCR4 receptor conformational changes in lipidic micelles SB2L4 and SB3L1; type: biochemical; conditions: SB2L4 and SB3L1, 40 min
T1 construct: host or cells: HEK-293 T cells
T1 sequence (P61073 whole entry): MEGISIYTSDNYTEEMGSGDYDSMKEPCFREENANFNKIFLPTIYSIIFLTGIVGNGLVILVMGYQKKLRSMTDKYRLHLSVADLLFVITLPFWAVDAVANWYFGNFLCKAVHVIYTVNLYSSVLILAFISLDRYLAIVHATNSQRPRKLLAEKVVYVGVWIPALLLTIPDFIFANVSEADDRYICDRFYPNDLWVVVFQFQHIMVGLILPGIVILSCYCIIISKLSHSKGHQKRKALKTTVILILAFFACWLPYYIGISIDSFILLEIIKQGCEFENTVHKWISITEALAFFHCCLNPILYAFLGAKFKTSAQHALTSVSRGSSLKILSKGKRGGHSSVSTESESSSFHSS
Excerpt: G.Validation® assay is […] biotech proprietary fluorescence based assay that assesses conformational changes of a receptor upon activation/inactivation. Recombinant CXCR4 receptor is produced and purified from HEK-293 T cells using […] proprietary mixes. Receptor is then reconstituted in detergent buffers containing lipids mimicking the lipidic composition of dendritic cells (DC) and macrophages (SB2L4 and SB3L1). Thereafter, the receptor is labelled with a non-modifying probe allowing the detection of the activation state and conformational change of the receptor upon addition of a ligand. Indeed, the probe emission spectra maximum wavelength (Amax) shifts according to activation/inactivation of the receptor. Thus, kinetic of activation/inactivation of the receptor can be followed by monitoring Amax shift after addition of a ligand over time. Emission spectra were registered for 40 minutes after addition of each ligand. […] Activation/inactivation kinetics were also followed using an exemplary compound of formula (I), i.e.

[3] = tested on: Male C57BL/6 Rj mice; assay: In vivo evaluation of CXCR4 antagonistic activity by mobilisation of blood cells; design: species or system mouse; conditions: 20 mg/kg single i.p., 2:30 h after injection; shown also for neutrophils, monocytes, lymphocytes, eosinophils
Experimental: Male C57BL/6 Rj mice (7 weeks old) were obtained from Janvier (Le Genest-Saint-Isle, France). Mice were treated by a single intraperitoneal (i.p.) administration at timepoint 0 h. The experimental groups (n=10) were defined as follows: • Mice of group 1 were treated with vehicle only (0.9% NaCl aqueous solution) • Mice of group 2 were treated with AMD3100 (CXCR4 antagonist, Sigma-Aldrich, St Louis, USA) at 20 mg/kg (volume of 10 mL/kg) in 0.9% NaCl aqueous solution • Mice of group 3 were treated with an exemplary compound of formula (I), i.e. Example 60, at 30 mg/kg (volume of 10 mL/kg) in 0.9% NaCl aqueous solution
After 2:30 h, whole blood (at least 200 μl, max 1 mL) was collected in EDTA tubes before sacrifice by an intracardiac puncture under isoflurane anaesthesia and haematology parameters were determined the same day by laser flow cytometry, optical fluorescence and Laminar Flow Impedance™ using the ProCyte Dx hematology analyser (IDEXX, Eau Claire, USA). Differential leukocyte counts were performed to quantify specific immune cell types. Data are reported as total number of cells (K/μL), mean±S.E.M., as well as the statistical significance versus the vehicle control group using unpaired t-tests.

CXCR4 structural activation/inactivation, Amax shift in fluorescence ([2]; ligand 100 μM added after Example 60 150 μM): did not reverse Example 60 effect
CXCR4 structural activation/inactivation, Amax shift in fluorescence ([2]; ligand 100 μM added after SDF1α 15 μM): reversed SDF1α effect with a blue shift
SMILES: c1cc(CN2CCCNCCNCCCNCC2)ccc1CN1CCCNCCNCCCNCC1 [AMD3100, plerixafor, reference compound]
irrelevant GPCR activation state, Amax shift in fluorescence [1]: Neither benchmark ligands SDF1α and AMD3100, nor Example 60 showed any effect
numbers of white blood cells in the blood vs vehicle control [3]: significantly higher
